In article PMC7094215, “Synthesis and Evaluation of Antileishmanial and Cytotoxic Activity of Benzothiopyrane Derivatives” (Molecules, 2020):

Columns and labels:
[1] = Cytotoxic activity, MTT method; type: cell-based; settings: human, LC50
Method: Cytotoxicity of the compounds was evaluated on human monocytes (U-937 ATCC CRL-1593.2) in an exponential growth phase and adjusted at 1 × 10^5 cells/mL in RPMI-1640 enriched with 10% fetal bovine serum (FBS). One hundred microliters of cell suspension were dispensed in each well of a 96-wells microplate, and then 100 μL of 200-50-12.5 and 3.125 μg/mL concentration of each compound or standard drug (amphotericin B) were added dissolved in PBS with 0.5% DMSO. Cell exposed to compounds or standard drugs were incubated 72 h at 37 °C and 5% of CO2. Cytotoxic activity of each compound was determined according to the effect on the cell viability by the MTT microenzymatic method in which 3-(4,5-dimethylthiazol-2-yl)-2,5-diphenyltetrazolium bromide is reduced to a purple formazan product by mitochondrial enzyme succinate dehydrogenase. Thus, 10 μL/well of MTT solution (5 mg/mL) was added to each well of exposed and unexposed cells, and plates were incubated at 37 °C, 5% CO2 during 3 h. The reaction was stopped by adding 100 μL/well of isopropanol with 50% and 10% of SDS (sodium dodecyl sulfate). The concentration of formazan was determined spectrophotometrically at 570 nm (Varioskan, Thermo, Waltham, MA, USA) and intensity of color (absorbance) was registered as O.D. Cells exposed to control drug (amphotericin B) were used as control for toxicity (positive control) while cell incubated in the absence of any compound or drug were used as control for viability (negative control). Non-specific absorbance was corrected by subtracting absorbance (O.D) of the blank. Determinations were done by triplicate in at least two independent experiments.
Cytotoxicity was determined according to viability and mortality percentages obtained for each experimental condition (synthesized compounds, amphotericin B, and culture medium). Results were expressed as the mean lethal concentrations (LC50), the concentration necessary to kill 50% of cells, calculated by the parametric method of linear regression that permits doses-response analysis (Probit analysis).
Initially, viability percentages were calculated by Equation (1), where the O.D of control well, corresponds to 100% of viability:(1) % Viability=(O.D. exposed cells/O.D. unexposed cells)×100
Then, the percentage of cell growth inhibition was calculated using Equation (2):(2) % Inhibition =100−(% Viability)
The toxicity was defined according to LC50 values, using the follow scale: Toxic; LC50 < 100 μM; moderately toxic; LC50 > 100 μM and < 200 μM and potentially nontoxic; LC50 > 200 μM.

[2] = tested on: intracellular amastigotes of L. panamensis (MHOM/CO/87/UA140-EGFP strain); assay: In vitro antileishmanial activity on intracellular amastigotes (GFP, flow cytometry); type: cell-based, Leishmania (V) panamensis; settings: for SI (Selectivity Index = LC50/EC50): LC50 U-937 / EC50 L. panamensis amastigotes; for EC50: intracellular amastigotes in U-937 cells, 72 h exposure, mean ± SD, Probit
Method: Antileishmanial activity of compounds was determined according to the ability of the compound to reduce the infection by L. panamensis parasites. For this, the antileishmanial activity was tested on intracellular amastigotes of L. panamensis transfected with the green fluorescent protein gene (MHOM/CO/87/UA140-EGFP strain). Briefly, U-937 human cells at a density of 3 × 10^5 cells/mL in RPMI 1640 and 0.1 μg/mL of PMA (phorbol-12-myristate-13-acetate) were dispensed on 24-wells microplate and then infected with stationary phase growing L. panamensis promastigotes in 15:1 parasites per cell ratio. Plates were incubated at 34 °C and 5% CO2 for 3 h, and then cells were washed twice with phosphate buffer solution (PBS) to eliminate not internalized parasites. Fresh RPMI-1640 was added into each well (1 mL), and plates were incubated again. After 24 h of infection, the RPMI-1640 medium was replaced by fresh culture medium containing each compound at four serial dilutions (50, 12.5, 3.125 and 0.78 μg/mL) and plates were then incubated at 37 °C and 5% CO2 during 72 h, then, cells were removed from the bottom plate with 100 µL of EDTA/trypsin (250 mg) solution. The cells were centrifuged at 1100 rpm during 10 min at 4 °C, the supernatant was discarded, and cells were washed with 1 mL of cold PBS and centrifuged at 1100 rpm for 10 min at 4 °C. Cells were washed two times employing PBS, as previously, and after the last wash, the supernatant was discarded, and cells were suspended in 500 μL of PBS.
Cells were analyzed by flow cytometry employing a flow cytometer (FC 500MPL, Cytomics, Beckman Coulter. Pasadena, CA, USA) reading at 488 nm (exciting) and 525 nm (emitting) over an argon laser and counting 10,000 events. Infected cells were determined according to the events for green fluorescence (parasites). All determinations for each compound and standard drug were carried out by triplicate, in two experiments. Infected cells exposed to control drug (amphotericin B) were used as the control for antileishmanial activity (positive control), while infected cells incubated in the absence of any compound or drug were used as another control for infection (negative control). Nonspecific fluorescence was corrected by subtracting the fluorescence of unstained cells. Determinations were done by triplicate in at least two independent experiments.
The antileishmanial activity was determined according to the reduction of the percentage of fluorescent parasites determined according to the median fluorescence intensity (MFI) obtained for each experimental condition by cytometry. The parasite values for each concentration of compound were calculated by Equation (3), where the % of parasites in control well, corresponds to 100% of parasites:(3) % Parasites=(MFI exposed parasites/MFI unexposed parasites)×100
Then, the inhibition percentage was calculated with Equation (4):(4) % Inhibitors of Parasites=100−(% Parasites)
Results of antileishmanial activities were expressed as the median effective concentrations (EC50) measured by Probit method.

[3] = Leishmania panamensis, U-937, 72 h

Row | Structure (SMILES) | CC50 at 72 h [1] [µM] | SI (Selectivity Index = LC50/EC50) [2] | EC50 [2, 3] [µM] | EC50 [2] [µM] | antileishmanial activity (in words) ([2]; intracellular amastigotes of L. panamensis)
1 | O=C1CC(C(=O)O)Sc2ccccc21 (racemic) [Compound 20a, 4-Oxothiochromane-2-carboxylic acid] | 133 ± 67.7 | 0.3 | 414 ± 58.5 | – | –
2 | O=C1CC(C(=O)O)Sc2ccccc21 (stereo not drawn) [20a (+), 4-oxo-thiochroman-2-carboxylic acid] | > 48.1 | > 0.1 | – | 505 ± 133 | –
3 | C[C@@H]1[C@H](O)[C@@H](C)/C=C/C=C/C=C/C=C/C=C/C=C/C=C/[C@H](O[C@@H]2O[C@H](C)[C@@H](O)[C@H](N)[C@@H]2O)C[C@@H]2O[C@](O)(C[C@@H](O)C[C@@H](O)[C@H](O)CC[C@@H](O)C[C@@H](O)CC(=O)O[C@H]1C)C[C@H](O)[C@H]2C(=O)O [Amphotericin B, reference compound] | 56.8 | – | 0.05 | – | –
4 | N#CC1=Cc2ccccc2SC1 [Compound 8a, 2H-Thiochromene-3-carbonitrile] | 4 ± 0.6 | 0.7 | – | – | –
5 | COC(=O)C1=Cc2ccccc2SC1 [Compound 8b, Methyl 2H-thiochromene-3-carboxylate] | 352 ± 47.5 | 2.8 | 126 ± 15.5 | – | practically inactive
6 | CC(=O)C1=Cc2ccccc2SC1c1ccccc1 (stereo not drawn) [Compound 8c, 1-(2-Phenyl-2H-thiochromen-3-yl)ethan-1-one] | 6 ± 0.4 | < 2.3 | > 2.6 | – | –
7 | CCCCCC1Sc2ccccc2C=C1C(C)=O (stereo not drawn) [Compound 8d, 1-(2-Pentyl-2H-thiochromen-3-yl)ethan-1-one] | 25.7 ± 4.6 | 3.1 | – | – | –
8 | O=C(C1=Cc2ccccc2SC1c1ccccc1)C(F)(F)F (stereo not drawn) [Compound 8e] | 21.2 ± 3.4 | 0.7 | 29.6 ± 6.2 | – | –
9 | N#CC1CSc2ccccc2C1=O (stereo not drawn) [Compound 9a, 4-Oxo-thiochromane-3-carbonitrile] | 770 ± 49.7 | 7.2 | 108 ± 34.3 | – | –
10 | COC(=O)C1CSc2ccccc2C1=O (stereo not drawn) [Compound 9b + 10b, Methyl 4-oxo-thiochromane-3-carboxylate] | 485 ± 45.4 | 3.6 | 134 ± 27 | – | –
11 | CCCCCC1Sc2ccccc2C(O)=C1C(C)=O (stereo not drawn) [Compound 10d, 1-(4-Hydroxy-2-pentyl-2H-thiochromen-3-yl)ethan-1-one] | 51 ± 9 | 4.1 | < 20 | 12.5 ± 3.3 | –
12 | O=CC1=Cc2ccccc2SC1c1ccccc1 (stereo not drawn) [Compound 13a, 2-Phenyl-2H-thiochromene-3-carbaldehyde] | 54.7 ± 3.2 | < 2.3 | > 23.8 | – | –
13 | O=CC1=Cc2ccccc2SC1c1ccc(F)cc1 (stereo not drawn) [Compound 13b, 2-(4-Fluorophenyl)-2H-thiochromene-3-carbaldehyde] | 9.6 ± 0.4 | 0.3 | 29.7 ± 4.4 | – | –
14 | O=CC1=Cc2ccccc2SC1c1ccc(Cl)cc1 (stereo not drawn) [Compound 13c, 2-(4-Chlorophenyl)-2H-thiochromene-3-carbaldehyde] | 161 ± 27.9 | 4.3 | 37 ± 5.6 | – | –
15 | O=CC1=Cc2ccccc2SC1c1ccccc1[N+](=O)[O-] (stereo not drawn) [Compound 13d, 2-(2-Nitrophenyl)-2H-thiochromene-3-carbaldehyde] | 23.9 ± 2.4 | 2.6 | – | – | –
16 | O=C(C1=Cc2ccccc2SC1c1ccccc1)c1ccccc1 (stereo not drawn) [Compound 15a, Phenyl(2-phenyl-2H-thiochromen-3-yl)methanone] | > 609 | – | 43.9 ± 11.6 | – | –
17 | O=C(C1=Cc2ccccc2SC1c1ccc(C(F)(F)F)cc1)c1ccc(Cl)cc1 (stereo not drawn) [Compound 15b, (4-Chlorophenyl)(2-(4-(trifluoromethyl)phenyl)-2H-thiochromen-3-yl)methanone] | 97.2 ± 14.2 | 2.6 | 37.9 ± 2.8 | – | –
18 | O=C(C1=Cc2ccccc2SC1c1ccc([N+](=O)[O-])cc1)c1ccc(Cl)cc1 (stereo not drawn) [Compound 15c, (4-Chlorophenyl)(2-(4-nitrophenyl)-2H-thiochromen-3-yl)methanone] | 151 ± 18.1 | 4.0 | 38.1 ± 11.3 | – | –
19 | O=C1CC(C(=O)O)Sc2ccc(F)cc21 (stereo not drawn) [Compound 20b, 6-Fluoro-4-oxo-thiochromane-2-carboxylic acid] | 210 ± 78.7 | 0.1 | 3520 ± 3010 | – | –
20 | COc1ccc2c(c1)C(=O)CC(C(=O)O)S2 (stereo not drawn) [Compound 20c, 6-Methoxy-4-oxo-thiochromane-2-carboxylic acid] | 76.3 ± 8.6 | 0.2 | 494 ± 324 | – | –
21 | COc1ccc2c(c1)SC(C(=O)O)CC2=O (stereo not drawn) [Compound 20d, 7-Methoxy-4-oxo-thiochromane-2-carboxylic acid] | 90.4 ± 16.4 | 0.3 | 277 ± 101 | – | –
22 | CCOC(=O)C1CC(=O)c2ccccc2S1 (stereo not drawn) [Compound 22a, Ethyl 4-oxo-thiochromane-2-carboxylate] | 211.1 ± 0.7 | < 3.1 | > 68.5 | – | –
23 | CCCCOC(=O)C1CC(=O)c2ccccc2S1 (stereo not drawn) [Compound 22b, Butyl 4-oxo-thiochromane-2-carboxylate] | 231 ± 44.5 | < 1.2 | > 189 | – | –
24 | CCCCCCOC(=O)C1CC(=O)c2ccccc2S1 (stereo not drawn) [Compound 22c, Hexyl 4-oxo-thiochromane-2-carboxylate] | 213 ± 47.9 | < 2.1 | > 103 | – | –
25 | CCCCCCCCCCOC(=O)C1CC(=O)c2ccccc2S1 (stereo not drawn) [Compound 22d, Decyl 4-oxo-thiochromane-2-carboxylate] | 140 ± 20.7 | < 1.0 | > 144 | – | –
26 | CCCCCCNC(=O)C1CC(=O)c2ccccc2S1 (stereo not drawn) [Compound 24a, N-hexyl-4-oxo-thiochromane-2-carboxamide] | 157 ± 9.7 | 0.7 | 216 ± 2.5 | – | –
27 | CCCCCCCCCCCCNC(=O)C1CC(=O)c2ccccc2S1 (stereo not drawn) [Compound 24b, N-dodecyl-4-oxo-thiochromane-2-carboxamide] | 148 ± 45.4 | < 1.8 | > 80 | – | –
